Test results as given in US20110262508A1, “ANTIMICROBIAL COMPOSITIONS, FORMULATIONS AND USES THEREOF” (priority 2007, published 2011).
Read-outs that look alike come from different tables or passages of the source. Peptide text beside a SMILES is read from it.

Legend:
Assay type in all cases: cell-based
[1] = tested on: S. typhimurium strain AroA
Experimental: Synthetic peptides were tested for their ability to inhibit bacterial growth in liquid culture. […] 19606, Acinetobacter spp. ATCC 17903, Acinetobacter spp. ATCC 19004, Escherichia coli strain BL21, S. aureus, S. typhimurium strain AroA, P. aeruginosa or P. pneumotropica. After 5-6 hours of shaking at 37° C., growth was measured as absorbance at 595 nm. As a control, cultures were grown in the presence of 0.1% acetonitrile (i.e., the concentration present in 10 μM peptide).

[2] = tested on: A. baumannii ATCC 19606, Acinetobacter spp. ATCC 17903, Acinetobacter spp. ATCC 19004, E. coli BL21, S. aureus, S. typhimurium AroA, P. aeruginosa, P. …; test: Antibacterial spectrum over the serial dilution panel (Table 6); conditions: summary of Table 6
Experimental: Synthetic peptides were tested for their ability to inhibit bacterial growth in liquid culture. The peptides were added at a concentration of between about 5 μM and about 10 μM to individual wells of 96-deep-well dishes that contained liquid growth media freshly inoculated with one of the following bacteria: A. baumannii ATCC Accession No. 19606, Acinetobacter spp. ATCC 17903, Acinetobacter spp. ATCC 19004, Escherichia coli strain BL21, S. aureus, S. typhimurium strain AroA, P. aeruginosa or P. pneumotropica. After 5-6 hours of shaking at 37° C., growth was measured as absorbance at 595 nm. As a control, cultures were grown in the presence of 0.1% acetonitrile (i.e., the concentration present in 10 μM peptide).

A. baumannii = tested on: A. baumannii
Text: Broth dilution methods are e.g., described by Lorian (2007) In: Antibiotics in Laboratory Medicine, Fifth Edition; and In: Clinical and Laboratory Standards Institute, CLSI (formerly NCCLS), In: Methods for Dilution Antimicrobial Susceptibility Tests for Bacteria that Grow Aerobically—Approved Standard—Seventh Edition, CLSI document M7-A7, Villanova, Pa. (NCCLS; January 2006; Vol. 26 No. 2); and In: Clinical and Laboratory Standards Institute, CLSI (formerly NCCLS), Performance Standards for Antimicrobial Susceptibility Testing, Seventeenth Informational Supplement, M100-S17, Vol 27 No. 1 January 2007, all of which are incorporated herein by reference.
The present inventors used such methods to quantitate activity in vitro of antimicrobial peptides of the invention against bacterial isolates, including laboratory strains and 50 clinical isolates of A. baumannii, and S. aureus ATCC Accession No. 2992. Briefly, small volumes of broth are dispensed in sterile, plastic microtiter trays, and 100 μl of serially-diluted antimicrobial peptide (0.1-64 μg) and 100 μl test organism (approximately 1×10^5 C.F.U.), are added. Following aerobic incubation overnight at 35±2° C. Control samples lacked peptide (Growth control), or lacked peptide and bacteria (Sterility control). The trays were examined visually and the minimal inhibitory concentration (MIC) of peptide required to inhibit bacterial growth were determined. The minimum bactericidal concentration (MBC) was estimated by sub-culturing the wells for which no bacterial growth was visible to the naked eye, to thereby determine a concentration of antimicrobial that reduces the original inoculum by at least about 99.9%.

| Structure (SMILES) | % inhibition of bacterial growth by peptide ([1]; 15 μM peptide) [%] | % inhibition of bacterial growth by peptide ([1]; 20 μM peptide) [%] | % inhibition of bacterial growth by peptide ([1]; 5 μM peptide) [%] | % inhibition of bacterial growth by peptide ([1]; 10 μM peptide) [%] | other results |
| --- | --- | --- | --- | --- | --- |
| CC(C)C[C@H](NC(=O)[C@H](C)NC(=O)[C@H](CS)NC(=O)[C@H](CO)NC(=O)[C@H](C)NC(=O)[C@H](CO)NC(=O)[C@H](CCCNC(=N)N)NC(=O)CN)C(=O)N[C@@H](CCCNC(=N)N)C(=O)N[C@@H](Cc1c[nH]c2ccccc12)C(=O)N[C@@H](C)C(=O)NCC(=O)N1CCC[C@H]1C(=O)N[C@@H](CC(C)C)C(=O)N1CCC[C@H]1C(=O)N[C@@H](CCCCN)C(=O)NCC(=O)N[C@@H](CCCNC(=N)N)C(=O)NCC(=O)N[C@@H](CCCCN)C(=O)N[C@@H](Cc1c[nH]c2ccccc12)C(=O)N[C@@H](Cc1c[nH]c2ccccc12)C(=O)N[C@@H](CS)C(=O)O [Ac68] (H-GRSASCALRWAGPLPKGRGKWWC-OH; N-terminus and C-terminus assumed) | 0 | 0 |  |  | % inhibition of bacterial growth by peptide ([1]; 12.5 μM peptide): 0%; % inhibition of bacterial growth by peptide ([1]; 17.5 μM peptide): 0%; selectively inhibited growth of Acinetobacter spp. ATCC 19004 [2]: selectively inhibited growth |
| CC(C)C[C@H](NC(=O)[C@@H](NC(=O)[C@H](CCC(=O)O)NC(=O)[C@@H](NC(=O)[C@H](CCCNC(=N)N)NC(=O)CNC(=O)[C@@H](N)CCC(N)=O)C(C)C)C(C)C)C(=O)N[C@@H](Cc1ccc(O)cc1)C(=O)N[C@@H](CCCNC(=N)N)C(=O)NCC(=O)N[C@@H](CO)C(=O)N[C@@H](Cc1c[nH]c2ccccc12)C(=O)NCC(=O)N[C@H](C(=O)N[C@H](C(=O)N[C@@H](CS)C(=O)O)C(C)C)[C@@H](C)O [Ac175, reference compound] (H-QGRVEVLYRGSWGTVC-OH; N-terminus and C-terminus assumed) | 0 | 4 | 3 | 0 | selectively inhibited growth of S. aureus [2]: selectively inhibited growth |
| C[C@H](NC(=O)[C@@H](NC(=O)CNC(=O)[C@@H]1CCCN1C(=O)[C@H](Cc1c[nH]cn1)NC(=O)[C@H](CCCNC(=N)N)NC(=O)[C@H](Cc1c[nH]cn1)NC(=O)[C@H](CCCNC(=N)N)NC(=O)[C@H](Cc1c[nH]cn1)NC(=O)[C@H](CCCNC(=N)N)NC(=O)[C@H](CCCNC(=N)N)NC(=O)[C@H](Cc1c[nH]cn1)NC(=O)[C@H](CCCNC(=N)N)NC(=O)[C@H](Cc1c[nH]cn1)NC(=O)[C@H](Cc1c[nH]cn1)NC(=O)[C@@H]1CCCN1C(=O)[C@H](Cc1c[nH]cn1)NC(=O)[C@@H]1CCCN1C(=O)[C@H](CCC(N)=O)NC(=O)[C@H](CCC(N)=O)NC(=O)[C@@H]1CCCN1C(=O)[C@@H](NC(=O)[C@@H](N)CC(N)=O)[C@@H](C)O)[C@@H](C)O)C(=O)O [Ac47] (H-NTPQQPHPHHRHRRHRHRHPGTA-OH; N-terminus and C-terminus assumed) | 29 | 50 | 13 | 25 | selectively inhibited growth of Acinetobacter spp. ATCC 19004, and S. aureus [2]: selectively inhibited growth |
| CC[C@H](C)[C@H](NC(=O)[C@H](Cc1ccccc1)NC(=O)[C@H](CCC(N)=O)NC(=O)[C@H](CO)NC(=O)[C@H](Cc1ccccc1)NC(=O)[C@H](Cc1c[nH]cn1)NC(=O)[C@H](CCCNC(=N)N)NC(=O)[C@H](Cc1c[nH]cn1)NC(=O)[C@@H](NC(=O)[C@H](CCCNC(=N)N)NC(=O)[C@H](CC(C)C)NC(=O)CNC(=O)[C@H](CC(C)C)NC(=O)[C@H](CC(=O)O)NC(=O)[C@H](CCCNC(=N)N)NC(=O)[C@@H](NC(=O)[C@H](CCC(N)=O)NC(=O)[C@H](CCCNC(=N)N)NC(=O)[C@@H](N)CCCNC(=N)N)C(C)C)C(C)C)C(=O)N[C@@H](CC(N)=O)C(=O)N[C@@H](CCCNC(=N)N)C(=O)N[C@@H](CO)C(=O)NCC(=O)O [Ac173] (H-RRQVRDLGLRVHRHFSQFINRSG-OH; N-terminus and C-terminus assumed) | 0 | 0 |  |  | % inhibition of bacterial growth by peptide ([1]; 12.5 μM peptide): 0%; % inhibition of bacterial growth by peptide ([1]; 17.5 μM peptide): 0%; selectively inhibited growth of Acinetobacter spp. ATCC 19004 [2]: selectively inhibited growth |
| CSCC[C@H](NC(=O)[C@H](CCCCN)NC(=O)[C@H](CC(C)C)NC(=O)[C@H](CC(C)C)NC(=O)[C@H](Cc1ccccc1)NC(=O)[C@H](Cc1ccccc1)NC(=O)[C@@H](N)Cc1ccccc1)C(=O)N[C@@H](CC(N)=O)C(=O)N[C@@H](Cc1ccc(O)cc1)C(=O)N[C@@H](CC(N)=O)C(=O)N[C@@H](C)C(=O)N[C@H](C(=O)N[C@@H](Cc1c[nH]cn1)C(=O)N[C@@H](CC(C)C)C(=O)N[C@@H](C)C(=O)NCC(=O)N[C@@H](CCCNC(=N)N)C(=O)N[C@@H](CCC(=O)O)C(=O)N[C@@H](Cc1ccccc1)C(=O)O)[C@@H](C)O [Ac88] (H-FFFLLKMNYNATHLAGREF-OH; N-terminus and C-terminus assumed) | 0 | 13 | 0 | 0 | selectively inhibited growth of S. aureus [2]: selectively inhibited growth |
| C[C@@H](O)[C@H](NC(=O)[C@H](CS)NC(=O)[C@H](CO)NC(=O)[C@@H](N)Cc1c[nH]cn1)C(=O)N[C@H](C(=O)N1CCC[C@H]1C(=O)N[C@@H](CC(N)=O)C(=O)N[C@H](C(=O)N1CCC[C@H]1C(=O)N[C@@H](CCC(N)=O)C(=O)N[C@@H](CCC(N)=O)C(=O)N1CCC[C@H]1C(=O)N[C@@H](Cc1c[nH]cn1)C(=O)N1CCC[C@H]1C(=O)N[C@@H](Cc1c[nH]cn1)C(=O)N[C@@H](Cc1c[nH]cn1)C(=O)N[C@@H](CCCNC(=N)N)C(=O)N[C@@H](Cc1c[nH]cn1)C(=O)N[C@@H](CCCNC(=N)N)C(=O)N[C@@H](CCCNC(=N)N)C(=O)N[C@@H](Cc1c[nH]cn1)C(=O)N[C@@H](CCCNC(=N)N)C(=O)N[C@@H](Cc1c[nH]cn1)C(=O)O)[C@@H](C)O)[C@@H](C)O [Ac46] (H-HSCTTPNTPQQPHPHHRHRRHRH-OH; N-terminus and C-terminus assumed) | 18 | 36 | 3 | 16 | selectively inhibited growth of Acinetobacter spp. ATCC 19004, and S. aureus [2]: selectively inhibited growth |
| CC[C@H](C)[C@H](NC(=O)[C@H](Cc1c[nH]c2ccccc12)NC(=O)[C@H](CC(=O)O)NC(=O)[C@H](CO)NC(=O)[C@H](CS)NC(=O)[C@H](CC(C)C)NC(=O)[C@H](CC(C)C)NC(=O)[C@H](C)NC(=O)[C@H](CS)NC(=O)[C@H](CCCNC(=N)N)NC(=O)[C@H](CC(C)C)NC(=O)[C@H](CCCNC(=N)N)NC(=O)[C@H](C)NC(=O)CN)C(=O)N[C@H](C(=O)N[C@@H](CO)C(=O)N[C@@H](CS)C(=O)N[C@@H](CCCNC(=N)N)C(=O)N[C@@H](CC(C)C)C(=O)N[C@@H](CC(C)C)C(=O)NCC(=O)N[C@H](C(=O)N[C@@H](CC(N)=O)C(=O)O)C(C)C)C(C)C [Ac40] (H-GARLRCALLCSDWIVSCRLLGVN-OH; N-terminus and C-terminus assumed) |  |  |  |  | selectively inhibited growth of A. baumannii ATCC Accession No. 19606, Acinetobacter spp. ATCC 17903, Acinetobacter spp. ATCC 19004, and S. aureus [2]: selectively inhibited growth; MIC (μM) for amidated peptide (A. baumannii): 10 to 15 µM; MIC (μM) for non-amidated Peptide (A. baumannii): 10 to 15 µM |
| CC[C@H](C)[C@H](NC(=O)[C@H](CCCCN)NC(=O)[C@H](CO)NC(=O)[C@H](CC(C)C)NC(=O)[C@@H](N)CC(C)C)C(=O)N[C@@H](CCCNC(=N)N)C(=O)N[C@@H](C)C(=O)N[C@@H](CC(C)C)C(=O)N[C@@H](CCCNC(=N)N)C(=O)N[C@@H](CCCNC(=N)N)C(=O)N[C@@H](CCCNC(=N)N)C(=O)N[C@@H](CCCNC(=N)N)C(=O)N[C@@H](Cc1ccccc1)C(=O)NCC(=O)N[C@@H](CCC(N)=O)C(=O)N[C@@H](CO)C(=O)N[C@@H](CC(=O)O)C(=O)N[C@@H](CCCCN)C(=O)N[C@@H](CCCNC(=N)N)C(=O)N[C@H](C(=O)N[C@@H](CO)C(=O)N[C@@H](Cc1ccc(O)cc1)C(=O)N[C@@H](CCCCN)C(=O)O)[C@@H](C)CC [Ac16] (H-LLSKIRALRRRRFGQSDKRISYK-OH) |  |  |  |  | selectively inhibited growth of A. baumannii ATCC Accession No. 19606, Acinetobacter spp. ATCC 17903 and Acinetobacter spp. ATCC 19004 [2]: selectively inhibited growth; MIC (μM) for non-amidated Peptide (A. baumannii): 10 to 15 µM |
